Experimental data from patent US8476298B2 (Exelixis, Inc., priority 2003, dated 2013).
pIC50: −log10 of the molar value.

How the values were obtained:
[1] = target: T1, c-Met (baculovirus expressed human c-Met kinase domain P948-S1343) (Homo sapiens, UniProt P08581); experiment: c-Met Luciferase-Coupled Chemiluminescent Kinase assay (LCCA); type: biochemical;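 note: kinase activity read as percent ATP left after reaction, by luciferase-luciferin chemiluminescence, with 1 µM ATP and 1 µM poly-EY substrate, 2 h at ambient temperature, 10-point dose-response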
T1 construct: human c-Met kinase domain P948-S1343; host or cells: baculovirus expression

[2] = target: T2, Flt-3 (baculovirus expressed human Flt-3 kinase domain R571-S993) (Homo sapiens, UniProt P36888); experiment: biochemical; conditions: read-out: flt3 IC50;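 note: Luciferase-coupled chemiluminescent kinase assay, activity read as percent ATP left after a 3 h reaction at room temperature, ATP near KM, 10-point dose-response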
T2 construct: human Flt-3 kinase domain R571-S993; host or cells: baculovirus expression
T2 sequence (P36888 571-993): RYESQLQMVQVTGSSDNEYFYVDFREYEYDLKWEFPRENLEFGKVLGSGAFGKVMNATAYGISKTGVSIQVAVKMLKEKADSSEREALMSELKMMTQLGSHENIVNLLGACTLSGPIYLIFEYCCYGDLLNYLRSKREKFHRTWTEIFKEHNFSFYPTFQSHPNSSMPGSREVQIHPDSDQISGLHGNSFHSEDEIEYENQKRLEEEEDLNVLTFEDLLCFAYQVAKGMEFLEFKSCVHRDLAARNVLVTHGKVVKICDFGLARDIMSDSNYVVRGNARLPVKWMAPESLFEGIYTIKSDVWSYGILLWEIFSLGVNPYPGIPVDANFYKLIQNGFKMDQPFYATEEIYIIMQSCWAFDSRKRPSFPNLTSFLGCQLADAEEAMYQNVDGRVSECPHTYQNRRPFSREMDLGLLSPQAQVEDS

[3] = target: T3, KDR (baculovirus expressed human KDR kinase domain D807-V1356) (Homo sapiens, UniProt P35968); experiment: biochemical;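 note: Luciferase-coupled chemiluminescent kinase assay, activity read as percent ATP left after 4 h reaction at ambient temperature, ATP near KM, 10-point dose-response in 384-well plates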
T3 construct: human KDR kinase domain D807-V1356; host or cells: baculovirus expression

[4] = target: c-Kit kinase (Homo sapiens, UniProt P10721); experiment: c-Kit AlphaScreen kinase assay; type: biochemical;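 note: c-Kit kinase phosphorylating biotinylated poly(Glu,Tyr), ATP near its KM, 1 h reaction at ambient temperature, AlphaScreen chemiluminescence with streptavidin donor and anti-phosphotyrosine acceptor beads, 10-point inhibitor titration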
[5] = target: T4, Flt-4 (baculovirus expressed human Flt-4 kinase domain D725-R1298) (Homo sapiens, UniProt P35916); experiment: flt-4 Alphascreen Tyrosine Kinase assay; type: biochemical; conditions: read-out: flt4 IC50;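 note: AlphaScreen chemiluminescence read-out of biotinylated poly(Glu,Tyr) 4:1 phosphorylation via streptavidin donor and PY100 anti-phosphotyrosine acceptor beads, ATP near KM, 1 hr kinase reaction, 10-point dose-response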
T4 construct: human Flt-4 kinase domain D725-R1298; host or cells: baculovirus expression
T4 sequence (P35916 725-1298 isoform P35916-1): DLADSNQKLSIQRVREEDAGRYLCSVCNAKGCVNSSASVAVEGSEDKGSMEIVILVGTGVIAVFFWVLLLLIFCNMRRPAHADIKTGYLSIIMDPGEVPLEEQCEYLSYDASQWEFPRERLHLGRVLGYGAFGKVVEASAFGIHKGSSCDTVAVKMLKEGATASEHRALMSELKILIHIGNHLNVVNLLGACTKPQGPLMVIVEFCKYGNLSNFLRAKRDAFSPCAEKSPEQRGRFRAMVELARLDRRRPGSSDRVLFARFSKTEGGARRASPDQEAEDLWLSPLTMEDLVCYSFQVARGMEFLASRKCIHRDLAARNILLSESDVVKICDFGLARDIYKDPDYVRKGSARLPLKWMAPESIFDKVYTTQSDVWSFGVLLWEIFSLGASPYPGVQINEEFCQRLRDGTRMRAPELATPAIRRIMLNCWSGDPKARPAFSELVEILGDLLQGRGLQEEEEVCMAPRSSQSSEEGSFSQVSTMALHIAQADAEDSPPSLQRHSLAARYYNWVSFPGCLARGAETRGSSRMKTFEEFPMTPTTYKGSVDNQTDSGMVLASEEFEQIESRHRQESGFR

T1 sequence (P08581 1011-1343 limits assumed): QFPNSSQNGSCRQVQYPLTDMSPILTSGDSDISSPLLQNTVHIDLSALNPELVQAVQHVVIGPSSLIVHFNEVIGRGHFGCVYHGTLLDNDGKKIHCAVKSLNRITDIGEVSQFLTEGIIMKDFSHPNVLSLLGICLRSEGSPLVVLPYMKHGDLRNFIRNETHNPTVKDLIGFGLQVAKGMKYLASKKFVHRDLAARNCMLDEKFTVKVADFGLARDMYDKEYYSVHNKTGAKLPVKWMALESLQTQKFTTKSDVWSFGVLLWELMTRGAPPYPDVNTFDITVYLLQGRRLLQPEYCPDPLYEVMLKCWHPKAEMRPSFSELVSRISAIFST
c-Kit kinase, sequence (P10721 26-976): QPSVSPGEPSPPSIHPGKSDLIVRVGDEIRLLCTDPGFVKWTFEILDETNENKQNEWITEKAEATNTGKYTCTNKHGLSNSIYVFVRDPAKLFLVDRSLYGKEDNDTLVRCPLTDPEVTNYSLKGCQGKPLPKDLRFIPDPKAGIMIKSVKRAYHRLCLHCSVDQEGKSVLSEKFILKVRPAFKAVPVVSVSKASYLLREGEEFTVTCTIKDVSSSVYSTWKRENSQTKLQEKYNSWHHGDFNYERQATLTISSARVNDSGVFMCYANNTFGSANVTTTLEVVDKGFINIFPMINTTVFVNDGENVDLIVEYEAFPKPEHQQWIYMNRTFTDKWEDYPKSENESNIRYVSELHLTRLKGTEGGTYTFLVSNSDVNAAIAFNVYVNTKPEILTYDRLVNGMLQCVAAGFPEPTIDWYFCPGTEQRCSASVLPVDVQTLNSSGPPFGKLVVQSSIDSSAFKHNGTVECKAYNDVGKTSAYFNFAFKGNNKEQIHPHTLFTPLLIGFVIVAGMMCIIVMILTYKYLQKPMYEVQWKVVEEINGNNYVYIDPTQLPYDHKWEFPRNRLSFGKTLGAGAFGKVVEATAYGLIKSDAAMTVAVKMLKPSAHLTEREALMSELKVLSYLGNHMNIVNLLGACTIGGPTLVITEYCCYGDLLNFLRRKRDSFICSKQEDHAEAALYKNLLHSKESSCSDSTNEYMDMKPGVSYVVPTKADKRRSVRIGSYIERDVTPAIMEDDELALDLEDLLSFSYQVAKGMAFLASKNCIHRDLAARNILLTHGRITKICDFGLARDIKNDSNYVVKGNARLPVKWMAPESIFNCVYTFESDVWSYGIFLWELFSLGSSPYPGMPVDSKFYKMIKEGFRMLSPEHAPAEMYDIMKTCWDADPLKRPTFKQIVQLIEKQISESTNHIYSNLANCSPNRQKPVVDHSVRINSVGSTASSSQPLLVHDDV
T3 sequence (P35968 807-1356): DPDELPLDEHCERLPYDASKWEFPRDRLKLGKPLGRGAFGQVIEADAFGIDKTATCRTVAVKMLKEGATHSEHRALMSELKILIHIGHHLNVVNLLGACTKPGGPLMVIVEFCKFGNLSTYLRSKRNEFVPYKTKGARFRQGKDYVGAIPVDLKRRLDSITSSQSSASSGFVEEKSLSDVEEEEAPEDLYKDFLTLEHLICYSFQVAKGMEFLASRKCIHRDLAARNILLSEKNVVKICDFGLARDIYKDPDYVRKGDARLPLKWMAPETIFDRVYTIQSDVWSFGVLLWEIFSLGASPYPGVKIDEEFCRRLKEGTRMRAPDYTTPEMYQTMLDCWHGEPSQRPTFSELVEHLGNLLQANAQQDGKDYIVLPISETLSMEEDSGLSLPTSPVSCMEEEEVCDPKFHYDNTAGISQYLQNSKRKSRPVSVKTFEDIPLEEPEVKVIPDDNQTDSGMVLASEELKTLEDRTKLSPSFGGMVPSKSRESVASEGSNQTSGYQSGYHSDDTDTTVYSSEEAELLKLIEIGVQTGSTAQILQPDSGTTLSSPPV

pIC50 [1] | pIC50 [2] | pIC50 [3] | pIC50 [4] | pIC50 [5] | Compound
> 7.30 | > 7.30 | 5.30 to 6.30 | 6.30 to 7.30 | 5.30 to 6.30 | COc1cc2nccc(Oc3ncc(NC(=O)CC(=O)Nc4ccccc4)cc3Cl)c2cc1OC [Example 291, N-(6-{[6,7-bis(methyloxy)quinolin-4-yl]oxy}-5-chloropyridin-3-yl)-N′-phenylpropanediamide]
6.30 to 7.30 | > 7.30 | 6.30 to 7.30 | 6.30 to 7.30 | 6.30 to 7.30 | COc1cc2nccc(Oc3ncc(NC(=O)C(C)(C)C(=O)Nc4ccc(F)cc4)cc3Cl)c2cc1OC [Example 292, N-(6-{[6,7-bis(methyloxy)quinolin-4-yl]oxy}-5-chloropyridin-3-yl)-N′-(4-fluorophenyl)-2,2-dimethylpropanediamide]
> 7.30 | 6.30 to 7.30 | 6.30 to 7.30 | 6.30 to 7.30 | 6.30 to 7.30 | CCNC(=O)C(=O)Nc1ccc(Oc2ccnc3cc(OCC4CCNCC4)c(OC)cc23)c(F)c1 [Example 293, N-ethyl-N′-[3-fluoro-4-({6-(methyloxy)-7-[(piperidin-4-ylmethyl)oxy]quinolin-4-yl}oxy)phenyl]ethanediamide]
> 7.30 | 6.30 to 7.30 | 6.30 to 7.30 | 6.30 to 7.30 | 5.30 to 6.30 | COc1cc2c(Oc3ccc(NC(=O)C(=O)NC(C)C)cc3F)ccnc2cc1OCC1CCNCC1 [Example 294, N-[3-fluoro-4-({6-(methyloxy)-7-[(piperidin-4-ylmethyl)oxy]quinolin-4-yl}oxy)phenyl]-N′-(1-methylethyl)ethanediamide]
> 7.30 | 6.30 to 7.30 | 6.30 to 7.30 | 6.30 to 7.30 | 6.30 to 7.30 | CCCCNC(=O)C(=O)Nc1ccc(Oc2ccnc3cc(OCC4CCNCC4)c(OC)cc23)c(F)c1 [Example 295, N-butyl-N′-[3-fluoro-4-({6-(methyloxy)-7-[(piperidin-4-ylmethyl)oxy]quinolin-4-yl}oxy)phenyl]ethanediamide]
6.30 to 7.30 | 6.30 to 7.30 | 6.30 to 7.30 | 6.30 to 7.30 | 5.30 to 6.30 | COCCNC(=O)C(=O)Nc1ccc(Oc2ccnc3cc(OCC4CCNCC4)c(OC)cc23)c(F)c1 [Example 296, N-[3-fluoro-4-({6-(methyloxy)-7-[(piperidin-4-ylmethyl)oxy]quinolin-4-yl}oxy)phenyl]-N′-[2-(methyloxy)ethyl]ethanediamide]
> 7.30 | 6.30 to 7.30 | 6.30 to 7.30 | 6.30 to 7.30 | 6.30 to 7.30 | COc1cc2c(Oc3ccc(NC(=O)C(=O)NCC4CC4)cc3F)ccnc2cc1OCC1CCNCC1 [Example 297, N-(cyclopropylmethyl)-N′-[3-fluoro-4-({6-(methyloxy)-7-[(piperidin-4-ylmethyl)oxy]quinolin-4-yl}oxy)phenyl]ethanediamide]
6.30 to 7.30 | > 7.30 | > 7.30 | 6.30 to 7.30 | 6.30 to 7.30 | COc1cc2c(Oc3ccc(NC(=O)C(=O)NCCN4CCOCC4)cc3F)ccnc2cc1OCC1CCNCC1 [Example 298, N-[3-fluoro-4-({6-(methyloxy)-7-[(piperidin-4-ylmethyl)oxy]quinolin-4-yl}oxy)phenyl]-N′-(2-morpholin-4-ylethyl)ethanediamide]
> 7.30 | 6.30 to 7.30 | 6.30 to 7.30 | 6.30 to 7.30 | 6.30 to 7.30 | COc1cc2c(Oc3ccc(NC(=O)C(=O)N4CCCC4)cc3F)ccnc2cc1OCC1CCNCC1 [Example 299, N-[3-fluoro-4-({6-(methyloxy)-7-[(piperidin-4-ylmethyl)oxy]quinolin-4-yl}oxy)phenyl]-2-oxo-2-pyrrolidin-1-ylacetamide]
> 7.30 | 6.30 to 7.30 | 6.30 to 7.30 | 5.30 to 6.30 | 6.30 to 7.30 | CCN(C)C(=O)C(=O)Nc1ccc(Oc2ccnc3cc(OCC4CCNCC4)c(OC)cc23)c(F)c1 [Example 300, N-ethyl-N′-[3-fluoro-4-({6-(methyloxy)-7-[(piperidin-4-ylmethyl)oxy]quinolin-4-yl}oxy)phenyl]-N-methylethanediamide]
> 7.30 | 6.30 to 7.30 | 5.30 to 6.30 | 6.30 to 7.30 | 6.30 to 7.30 | COc1cc2nccc(Oc3ncc(NC(=O)C4(C(=O)NCc5ccccc5)CC4)cc3Cl)c2cc1OC [Example 301, N-(6-{[6,7-bis(methyloxy)quinolin-4-yl]oxy}-5-chloropyridin-3-yl)-N′-(phenylmethyl)cyclopropane-1,1-dicarboxamide]
> 7.30 | 5.30 to 6.30 | > 7.30 | 5.30 to 6.30 | 6.30 to 7.30 | O=C(Nc1ccc(F)cc1)C1(C(=O)Nc2ccc(Oc3ccnc4cc(Cl)ccc34)c(F)c2)CC1 [Example 303, N-{4-[(7-chloroquinolin-4-yl)oxy]-3-fluorophenyl}-N′-(4-fluorophenyl)cyclopropane-1,1-dicarboxamide]
> 7.30 | > 7.30 | > 7.30 | > 7.30 | > 7.30 | CCN(CC)CCOc1cc2nccc(Oc3ccc(NC(=O)C4(C(=O)Nc5ccc(F)cc5)CC4)cc3F)c2cc1OC [Example 304, N-(4-{[7-{[2-(diethylamino)ethyl]oxy}-6-(methyloxy)quinolin-4-yl]oxy}-3-fluorophenyl)-N′-(4-fluorophenyl)cyclopropane-1,1-dicarboxamide]
> 7.30 | 5.30 to 6.30 | 6.30 to 7.30 | 6.30 to 7.30 | 6.30 to 7.30 | COc1cc2nccc(Oc3ccc(NC(=O)C4(C(=O)Nc5ccc(F)cc5)CC4)c(C)n3)c2cc1OC [Example 306, N-(6-{[6,7-bis(methyloxy)quinolin-4-yl]oxy}-2-methylpyridin-3-yl)-N′-(4-fluorophenyl)cyclopropane-1,1-dicarboxamide]
> 7.30 | 6.30 to 7.30 | > 7.30 | > 7.30 | > 7.30 | CCN(CC)CCOc1cc2nccc(Oc3ccc(NC(=O)C4(C(=O)Nc5ccc(F)cc5)CCC4)cc3F)c2cc1OC [Example 307, N-(4-{[7-{[2-(diethylamino)ethyl]oxy}-6-(methyloxy)quinolin-4-yl]oxy}-3-fluorophenyl)-N′-(4-fluorophenyl)cyclobutane-1,1-dicarboxamide]
> 7.30 | 5.30 to 6.30 | > 7.30 | 6.30 to 7.30 | 6.30 to 7.30 | O=C(Nc1ccc(F)cc1)C1(C(=O)Nc2ccc(Oc3ccnc4cc(Cl)ccc34)cc2)CC1 [Example 308, N-{4-[(7-chloroquinolin-4-yl)oxy]phenyl}-N′-(4-fluorophenyl)cyclopropane-1,1-dicarboxamide]
> 7.30 | 6.30 to 7.30 | 5.30 to 6.30 | 5.30 to 6.30 | 5.30 to 6.30 | COc1cc2c(Oc3ncc(NC(=O)C4(C(=O)Nc5ccc(F)cc5)CC4)cc3Cl)ccnc2cc1OCc1ccccc1 [Example 309, N-[5-chloro-6-({6-(methyloxy)-7-[(phenylmethyl)oxy]quinolin-4-yl}oxy)pyridin-3-yl]-N′-(4-fluorophenyl)cyclopropane-1,1-dicarboxamide]
> 7.30 | > 7.30 | > 7.30 | > 7.30 | > 7.30 | COc1cc2ncnc(Oc3ccc(NC(=O)C4(C(=O)Nc5ccc(F)cc5)CC4)cc3)c2cc1OC [Example 310, N-(4-{[6,7-bis(methyloxy)quinazolin-4-yl]oxy}phenyl)-N′-(4-fluorophenyl)cyclopropane-1,1-dicarboxamide]
> 7.30 | > 7.30 | > 7.30 | 6.30 to 7.30 | > 7.30 | COc1cc2ncnc(Oc3ccc(NC(=O)C4(C(=O)Nc5ccc(F)cc5)CC4)cc3F)c2cc1OC [Example 311, N-(4-{[6,7-bis(methyloxy)quinazolin-4-yl]oxy}-3-fluorophenyl)-N′-(4-fluorophenyl)cyclopropane-1,1-dicarboxamide]
> 7.30 | > 7.30 | > 7.30 | > 7.30 | > 7.30 | COc1cc2c(Oc3ccc(NC(=O)C4(C(=O)Nc5ccc(F)cc5)CC4)cc3F)ccnc2cc1OCCCN1CCCCC1 [Example 313, N-[3-fluoro-4-({6-(methyloxy)-7-[(3-piperidin-1-ylpropyl)oxy]quinolin-4-yl}oxy)phenyl]-N′-(4-fluorophenyl)cyclopropane-1,1-dicarboxamide]
> 7.30 | 6.30 to 7.30 | > 7.30 | > 7.30 | > 7.30 | COc1cc2c(Oc3ccc(NC(=O)C4(C(=O)Nc5ccc(F)cc5)CCC4)cc3F)ccnc2cc1OCCCN1CCCCC1 [Example 314, N-[3-fluoro-4-({6-(methyloxy)-7-[(3-piperidin-1-ylpropyl)oxy]quinolin-4-yl}oxy)phenyl]-N′-(4-fluorophenyl)cyclobutane-1,1-dicarboxamide]
